Test results reported in patent US20160000837A1, “COMPOSITIONS AND METHODS TO ALTER GUT MICROBIAL FERMENTATION USING SULFATE-REDUCING BACTERIA” (WASHINGTON UNIVERSITY, priority 2013, published 2016).

Columns and labels:
D. piger [1] = assay: In vitro cross feeding between B. thetaiotaomicron and D. piger (growth in conditioned medium, OD600); format: cell-based, D. piger GOR1; conditions: for D. piger growth in medium conditioned by wild-type B. thetaiotaomicron grown on the named carbon substrate: 0.5% carbon substrate in minimal medium, filter-sterilized, lactate 30 mM added, no added sulfate
Method: A B. thetaiotaomicron strain Δbt0238 that lacks detectable sulfatase activity, and the isogenic wild-type strain were grown in separate cultures containing minimal medium with either a sulfated or non-sulfated carbon substrate (chondroitin sulfate and fructose, respectively).
Exponential phase cultures of B. thetaiotaomicron Δbt0238 and the isogenic wild-type parental strain (Benjdia et al., 2011; kindly provided by Eric Martens, University of Michigan and Olivier Berteau, INRA), grown in Mega Medium 2.0, were inoculated under anaerobic conditions (atmosphere of 5% H2, 20% CO2 and 75% N2) into Balch tubes containing minimal medium supplemented with either 0.5% (w/v) chondroitin sulfate purified from shark cartilage (Sigma) or 0.5% fructose (Sigma) (n=6 tubes/carbon substrate/strain). […] Cultures representing the same strain and carbon substrate were combined and bacteria were pelleted by centrifugation at 3,200×g at 4° C. for ˜20 min. The supernatant was removed and sterilized by passage through a 0.22 μm filter (Fisher). […] The pH of the conditioned medium was adjusted to ˜7.0 using potassium phosphate buffer (pH 7.2). One half of each conditioned medium preparation was used to fill anaerobic Balch tubes (in triplicate) while sulfate (14 mM Na2SO4 and 4.1 mM MgSO4) was added to the remaining conditioned medium prior to filling the tubes (in triplicate).

D. piger [2] = assay: COPRO-Seq relative abundance of D. piger in fecal microbiota of gnotobiotic mice fed sulfur-supplemented HF/HS diets; format: in vivo
Description: Six groups, each composed of two co-housed mice colonized with the 9-member model human gut microbiota were fed one of 13 diets, all based on the HF/HS diet (0.12% w/w SO4; see Table S2 of Rey et al. PNAS 110: 13582-13587 for diet composition). Each group of mice were started on the HF/HS diet and then given a sequence of four diets with differing sulfur content, each for a 7-day period. The sequence of presentation of the four diets was randomized so that that each diet was eventually fed to two different groups of co-housed animals.
DNA isolated from feces (and cecal contents) was used to prepare libraries for shotgun Illumina sequencing (McNulty et al., 2011). Briefly, 1 μg of DNA from each sample was fragmented by sonication to an average size of ˜500 bp and subjected to enzymatic blunting and adenine tailing. Customized Illumina adapters containing maximally distant 4 bp or 8 bp barcodes were ligated to the A-tailed DNA. Barcoded libraries were then pooled, subjected to gel electrophoresis for size selection (˜200 bp) and the size-selected DNA amplified by PCR using primers and cycling conditions recommended by Illumina. Amplicons were purified (QIAquick PCR Purification Kit, Qiagen) and sequenced using an Illumina GA-IIx or HiSeq2000 instrument, with libraries loaded onto the flow cell at a concentration of 2.0-2.5 pM. […]

O=C(CO)[C@@H](O)[C@H](O)[C@H](O)CO [fructose]
D. piger growth in medium conditioned by wild-type B. thetaiotaomicron grown on the named carbon substrate (D. piger [1]): lack of growth

CC(O)C(=O)O (stereo not shown) [lactate]
growth of D. piger with lactate as sole carbon and electron source (D. piger [1]; in the absence of sulfate, data not shown): does not support growth

O=S(=O)(O)O [sulfate]
relative abundance of D. piger in the 9-member model human microbiota (D. piger [2]; 600-fold change in dietary sulfate (0.001% to 0.6% w/w) in HF/HS-based diets, 7 days each): did not affect
D. piger growth in fructose-conditioned medium after addition of exogenous sulfate (D. piger [1]; 14 mM Na2SO4 and 4.1 mM MgSO4 added): allowed growth

chondroitin sulfate
D. piger levels in fecal microbiota relative to the HF/HS diet (D. piger [2]; HF/HS diet supplemented with 3% chondroitin sulfate, 7 days, 9-member community, p<0.05): doubled
D. piger growth in medium conditioned by wild-type B. thetaiotaomicron grown on the named carbon substrate (D. piger [1]): Growth of D. piger was only observed
ability of D. piger to metabolize the substrate (growth in medium harvested from B. thetaiotaomicron Δbt0238 cultures) (D. piger [1]; chondroitin sulfate-containing minimal medium, lactate added): not able to metabolize
